We go through 18 compounds from publication PMC5557372 (ChemMedChem, 2017).

Each structure is given as a SMILES string. Values after ≈ are worked out from the molar mass of the structure shown. Values joined by “and” are separate entries in the source; they are usually repeats but may differ in a detail not shown here. Equal values may be shown once. Read-outs that look alike come from different tables or passages of the source.

Series [1] concerns the target Complex II (CII) (Rattus norvegicus, UniProt P21913+Q641Z9+Q6PCT8). Briefly: Complex II inhibition assay. The format is biochemical. The conditions noted are these: for CII inhibition activity (in words): rat heart mitochondria; for LLE: Ligand-Lipophilicity Efficiency (LLE = pIC50-ClogP).
Series [2] has as its system PC3 prostate cancer cells under hypoxia. Briefly: Hypoxia cytotoxicity in microfluidic culture.
In series [3] the test system is bovine CII. The note with it: read-out: bovine CII IC50; cited from earlier work.
Series [4] concerns 22Rv1 cells. Briefly: Seahorse XF metabolic parameters. The format is cell-based, human. The note with it: 22Rv1, 48 hour incubation.
Series [5] deals with Complex I (NADH ubiquinone-oxidoreductase) (Mus musculus, UniProt P03888+Q91WD5+Q9DC70). Briefly: Complex I inhibition assay. The format is biochemical. The conditions noted are these: for Selectivity Ratio (CII:CI): Complex I IC50 / Complex II IC50.
In series [6] the test system is HEK293 cells. Briefly: MTS cytotoxicity assay, HEK293. The note with it: for IC50: Homo sapiens, HEK293, 48 h, read-out: HEK293 IC50. Background: Tetrazolium assays rely on reduction of a dye to a coloured formazan, in cell work by metabolically active cells.
Series [7] relates to DU-145 prostate cancer cells. Briefly: MTS cytotoxicity assay, DU-145. The note with it: Homo sapiens, DU-145, 48 h, read-out: DU-145 IC50.
In series [8] the test system is PC3 prostate cancer cells. Briefly: MTS cytotoxicity assay, PC3. The note with it: Homo sapiens, 48 h, read-out: PC3 IC50.
Series [9] concerns 22Rv1 prostate cancer cells. Briefly: MTS cytotoxicity assay, 22Rv1. The conditions noted are these: 22Rv1, 48 hours; plateau beyond.
The subject of series [10] is CII. The conditions noted are these: read-out: CII IC50, cited from earlier work.
Setting [11] is: CII IC50, rat heart mitochondria, mean of n = 4 ± S.D.

Chain of Complex II (CII) (P21913 31-282): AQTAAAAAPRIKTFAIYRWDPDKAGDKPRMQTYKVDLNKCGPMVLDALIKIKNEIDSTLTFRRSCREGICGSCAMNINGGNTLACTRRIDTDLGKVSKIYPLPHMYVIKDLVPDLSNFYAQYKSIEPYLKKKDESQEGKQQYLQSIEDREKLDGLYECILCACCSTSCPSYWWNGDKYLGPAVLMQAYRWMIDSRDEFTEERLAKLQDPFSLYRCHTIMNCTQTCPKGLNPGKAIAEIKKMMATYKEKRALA
Chain of Complex II (CII) (Q641Z9 30-169 limits assumed): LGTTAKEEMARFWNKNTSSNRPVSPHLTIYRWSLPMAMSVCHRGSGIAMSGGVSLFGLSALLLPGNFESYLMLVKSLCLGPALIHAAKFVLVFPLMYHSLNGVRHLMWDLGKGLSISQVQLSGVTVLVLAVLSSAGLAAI
Chain of Complex II (CII) (Q6PCT8 57-159): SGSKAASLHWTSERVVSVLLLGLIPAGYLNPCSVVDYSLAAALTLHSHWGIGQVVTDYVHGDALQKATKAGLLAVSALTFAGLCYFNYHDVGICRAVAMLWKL
Chain of Complex II (CII) (Q920L2 35-656 partner): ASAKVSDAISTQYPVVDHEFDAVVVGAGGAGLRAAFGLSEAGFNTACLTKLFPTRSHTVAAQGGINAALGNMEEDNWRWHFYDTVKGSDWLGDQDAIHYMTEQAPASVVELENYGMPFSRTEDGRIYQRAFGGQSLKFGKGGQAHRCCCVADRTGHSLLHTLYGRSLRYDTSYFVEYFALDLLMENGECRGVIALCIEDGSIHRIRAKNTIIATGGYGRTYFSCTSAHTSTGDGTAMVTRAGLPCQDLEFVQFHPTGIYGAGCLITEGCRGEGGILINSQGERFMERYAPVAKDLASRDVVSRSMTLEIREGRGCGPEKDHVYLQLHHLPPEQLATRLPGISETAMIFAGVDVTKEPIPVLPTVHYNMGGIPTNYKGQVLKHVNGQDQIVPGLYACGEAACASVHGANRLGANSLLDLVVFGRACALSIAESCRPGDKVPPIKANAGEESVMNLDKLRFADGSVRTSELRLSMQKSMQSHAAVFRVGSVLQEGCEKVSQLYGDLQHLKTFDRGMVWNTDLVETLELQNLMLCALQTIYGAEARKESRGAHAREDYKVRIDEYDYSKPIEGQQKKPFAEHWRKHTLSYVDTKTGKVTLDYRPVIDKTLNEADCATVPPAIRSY

As to `CCCCCC(O)c1c(O)nc(OC)c(OC)c1O` (racemic) [compound 18, (rac)-3-(1-hydroxyhexyl)-5,6-dimethoxypyridine-2,4-diol], the “CII inhibition activity (in words)” value in series [1] is listed as “no CII inhibition activity”. In addition, the inhibition at 0.1 µM in series [1] (read-out: inhibition of CII at 100 nM concentration) was 0%. In addition, the “cytotoxic effect under hypoxia (in words)” value in series [2] (up to 10 μM) is given as “no cytotoxic effect”.

Take `CCCCCC(O)c1cnc(OC)c(OC)c1O` (racemic) [compound 19, (rac)-5-(1-hydroxyhexyl)-2,3-dimethoxypyridin-4-ol]: the “CII inhibition activity (in words)” value in series [1] is “inactive”.

In the case of `COc1nc(O)c(C(=O)c2ccco2)c(O)c1OC` [16a, (2,4-dihydroxy-5,6-dimethoxypyridin-3-yl)(furan-2-yl)methanone], the “CII inhibition activity (in words)” value in series [1] is given as “abrogates CII inhibition activity”.

For the compound `CCCCC(=O)c1c(O)nc(OC)c(OC)c1O` [16b, 1-(2,4-dihydroxy-5,6-dimethoxypyridin-3-yl)pentan-1-one], the IC50 in series [3] was 96 nM; in series [1] (setting [11]) it was 345 nM and 346 nM. The compound also showed an LLE in series [1] of 5.37.

In the case of `CCCCCC(=O)c1c(O)nc(OC)c(OC)c1O` [16c, 1-(2,4-dihydroxy-5,6-dimethoxypyridin-3-yl)hexan-1-one], the oxygen consumption rate entry in [4] (1-100 μM) is reported as “substantially reduced in a dose-dependent manner”. Also, the ATP production result in series [4] (vs no treatment control) is listed as “inhibition of ATP production”. For the same compound, in series [4] (vs no treatment control), the basal respiration entry is given as “reducing basal respiration”. The maximal respiration entry in [4] (vs no treatment control) is listed as “reduction of maximal respiration”. The IC50 in [1] (CII IC50 expressed in μg/mL, conversion of the nM IC50) was 64 nM; in [5] it was over 10000 nM; in series [6], 71 ± 5.2 µg/mL (≈ 264 µM); in series [7] it was 13 ± 1.6 µg/mL (≈ 48.3 µM); in [8] it was 55 ± 9.4 µg/mL (≈ 204 µM). Also, the LLE in [1] is recorded as 5.62. The “Selectivity Ratio (CII:CI)” value in series [5] is over 156. Moreover, the “selectivity for DU-145 and 22Rv1 prostate cancer cells over HEK293” value in series [6] (ratio of IC50 values) is about 7 fold. In series [2] (1 μM), this compound had a cell death of 12%.

Turning to `COc1nc(O)c(C(=O)CCCCOCc2ccccc2)c(O)c1OC` [16d, 5-(benzyloxy)-1-(2,4-dihydroxy-5,6-dimethoxypyridin-3-yl)pentan-1-one], the IC50 in series [1] (setting [11]) worked out at 281 ± 88.7 nM.

Regarding `COc1nc(O)c(C(=O)CCCCO)c(O)c1OC` [16e, 1-(2,4-dihydroxy-5,6-dimethoxypyridin-3-yl)-5-hydroxypentan-1-one], the IC50 in series [1] (setting [11]) stood at 3730 ± 1020 nM. For the same compound, in series [1] (vs literature IC50 of diazoxide), the “fold greater CII activity than diazoxide” value is on record as 10 fold.

For the compound `CCCCCCC(=O)c1c(O)nc(OC)c(OC)c1O` [16f, 1-(2,4-dihydroxy-5,6-dimethoxypyridin-3-yl)heptan-1-one], the figures for the IC50 in series [3] and in series [1] (setting [11]) were 20 nM and 283 nM, respectively. In series [1], this compound yielded an LLE of 4.57.

In turn, `CCCCCCCC(=O)c1c(O)nc(OC)c(OC)c1O` [16g, 1-(2,4-dihydroxy-5,6-dimethoxypyridin-3-yl)octan-1-one] returned an LLE in series [1] of 4.89.

Regarding `CCCCCCCCC(=O)c1c(O)nc(OC)c(OC)c1O` [16h, 1-(2,4-dihydroxy-5,6-dimethoxypyridin-3-yl)nonan-1-one], in series [1], the LLE is 4.93.

Regarding `CCCCCCCCCCC(=O)c1c(O)nc(OC)c(OC)c1O` [16j, 1-(2,4-dihydroxy-5,6-dimethoxypyridin-3-yl)undecan-1-one], the LLE in series [1] amounted to 4.32.

`CCCCCCCCCCCCC(=O)c1c(O)nc(OC)c(OC)c1O` [16k, 1-(2,4-dihydroxy-5,6-dimethoxypyridin-3-yl)tridecan-1-one] came in with an LLE in series [1] of 3.76. The IC50 in series [1] (read-out: CII IC50 expressed in μg/mL, conversion of the nM IC50) is 3.29 nM; in series [6], 28 ± 2 µg/mL (≈ 76.2 µM). For the same compound, the “Selectivity Ratio (CII:CI)” value in series [5] was over 3030. The “concentration at which maximal cytotoxicity is reached” value in series [9] came out at 10000 ng/mL. Moreover, in series [6] (ratio of IC50 values), the “selectivity for 22Rv1 over HEK293 cell line” value is given as 14 fold.

Consider `COc1[nH]c(=O)c(C(=O)[C@@H](C)C[C@H](C)[C@@H](Cl)CCl)c(O)c1OC` [Atpenin A5, atpenin A5, reference compound], for which the IC50 in series [1] (setting [11]) was 3.3 ± 2 nM; in [10], 3.6 to 10 nM.

Take `O=C(O)CC(=O)O` [Malonate]: in series [10], the IC50 is 40000 nM.

Regarding `O=C(CC(=O)C(F)(F)F)c1cccs1` [Thenoyltrifluoroacetone], the IC50 in series [10] (control compound in CII assay kits) was 30000 nM.

As to `CCCCCC(=O)c1cnc(OC)c(OC)c1O` [compound 20, 1-(4-hydroxy-5,6-dimethoxypyridin-3-yl)hexan-1-one], the “CII inhibition activity at 100 nM concentration (in words)” value in series [1] was “no activity”.

As to `CCCCCC(OC)c1cnc(OC)c(OC)c1O` (stereo not shown) [compound 24, 2,3-dimethoxy-5-(1-methoxyhexyl)pyridin-4-ol], in series [1], the “CII inhibition activity at 100 nM concentration (in words)” value was “no activity”.

Regarding `Cc1c(C)c2c(c(C)c1OC(=O)CCC(=O)O)CC[C@@](C)(CCC[C@H](C)CCC[C@H](C)CCCC(C)C)O2` [α-Tocopheryl succinate, α -Tocopheryl succinate], the IC50 in [10] was 42000 nM.
